According to ChEMBL document CHEMBL4507291 (2021):

Legend:
[1] = biological target: T1, Dual specificity mitogen-activated protein kinase kinase 6 (Homo sapiens) (UniProt P52564); assay: MAP2K6 (MKK6) Kinase screen; settings: Compound concentration 1.0 uM
T1 sequence (whole entry): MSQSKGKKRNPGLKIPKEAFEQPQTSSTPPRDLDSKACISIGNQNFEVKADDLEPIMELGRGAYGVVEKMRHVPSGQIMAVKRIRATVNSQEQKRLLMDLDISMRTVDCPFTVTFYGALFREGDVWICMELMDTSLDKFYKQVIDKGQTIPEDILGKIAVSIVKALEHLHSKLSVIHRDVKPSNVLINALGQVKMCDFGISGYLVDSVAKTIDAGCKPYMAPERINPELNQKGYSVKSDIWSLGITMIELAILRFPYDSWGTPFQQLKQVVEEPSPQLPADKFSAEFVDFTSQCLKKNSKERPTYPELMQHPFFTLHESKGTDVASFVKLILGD

[2] = biological target: T2, Mitogen-activated protein kinase kinase kinase 3 (Homo sapiens) (UniProt Q99759); assay: MAP3K3 (MEKK3) Kinase screen; settings: Compound concentration 1.0 uM
T2 sequence (whole entry): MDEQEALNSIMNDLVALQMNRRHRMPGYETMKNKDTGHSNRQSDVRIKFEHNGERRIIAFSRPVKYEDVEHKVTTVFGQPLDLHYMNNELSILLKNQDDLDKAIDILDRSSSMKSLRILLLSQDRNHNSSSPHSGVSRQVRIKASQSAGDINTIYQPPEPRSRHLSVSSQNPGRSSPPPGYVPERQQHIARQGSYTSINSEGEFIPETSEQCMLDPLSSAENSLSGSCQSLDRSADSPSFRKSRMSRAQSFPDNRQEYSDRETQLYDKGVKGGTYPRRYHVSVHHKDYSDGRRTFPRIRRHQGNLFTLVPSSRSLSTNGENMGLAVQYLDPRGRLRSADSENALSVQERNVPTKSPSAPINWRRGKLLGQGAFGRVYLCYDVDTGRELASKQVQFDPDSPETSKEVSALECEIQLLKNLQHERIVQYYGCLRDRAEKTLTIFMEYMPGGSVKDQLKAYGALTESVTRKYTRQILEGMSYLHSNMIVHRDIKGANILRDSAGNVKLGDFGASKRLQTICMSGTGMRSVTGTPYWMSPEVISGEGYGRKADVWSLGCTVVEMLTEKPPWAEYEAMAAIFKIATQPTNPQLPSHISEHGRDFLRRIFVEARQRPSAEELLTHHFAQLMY

[3] = biological target: Casein kinase II subunit alpha (Homo sapiens) (UniProt P68400); assay: CSNK2A1 (CK2 alpha 1) Kinase screen; settings: Compound concentration 1.0 uM
Casein kinase II subunit alpha (Homo sapiens), sequence (P68400 whole entry, looked up): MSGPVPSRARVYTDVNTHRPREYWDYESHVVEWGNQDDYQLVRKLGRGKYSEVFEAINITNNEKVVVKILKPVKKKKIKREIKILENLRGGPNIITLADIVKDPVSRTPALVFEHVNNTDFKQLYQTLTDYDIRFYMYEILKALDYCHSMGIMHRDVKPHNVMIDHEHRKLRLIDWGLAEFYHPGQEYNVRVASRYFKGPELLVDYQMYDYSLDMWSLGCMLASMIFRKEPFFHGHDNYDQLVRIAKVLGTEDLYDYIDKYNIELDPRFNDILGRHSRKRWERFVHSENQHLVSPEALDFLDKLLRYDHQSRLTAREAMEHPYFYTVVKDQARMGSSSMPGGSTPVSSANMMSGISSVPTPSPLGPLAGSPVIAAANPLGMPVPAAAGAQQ

[4] = biological target: T3, 5-hydroxytryptamine receptor 3A (Homo sapiens) (UniProt P46098); assay: Inhibition of Serotonin (5-Hydroxytryptamine) 5-HT3 at 10 µM in the Eurofins-Panlabs radioligand binding assay (Eurofins_assay_271910); set-up: ligand concentration 0.69 nM; settings: Compound concentration 10.0 uM
T3 sequence (whole entry): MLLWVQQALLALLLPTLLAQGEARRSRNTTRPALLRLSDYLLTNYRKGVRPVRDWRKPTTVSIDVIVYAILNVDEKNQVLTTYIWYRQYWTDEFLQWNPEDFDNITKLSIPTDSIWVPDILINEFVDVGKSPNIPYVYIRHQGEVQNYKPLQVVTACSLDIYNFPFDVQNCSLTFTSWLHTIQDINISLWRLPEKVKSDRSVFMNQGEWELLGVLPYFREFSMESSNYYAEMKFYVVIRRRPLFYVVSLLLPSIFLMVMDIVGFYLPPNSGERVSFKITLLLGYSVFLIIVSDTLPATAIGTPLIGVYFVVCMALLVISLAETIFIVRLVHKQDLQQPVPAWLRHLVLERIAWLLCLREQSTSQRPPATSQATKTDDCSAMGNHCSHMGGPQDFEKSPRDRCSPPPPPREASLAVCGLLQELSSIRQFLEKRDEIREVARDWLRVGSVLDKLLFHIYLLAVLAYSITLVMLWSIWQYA

[5] = biological target: Serine/threonine-protein kinase PAK 6 (Homo sapiens) (UniProt Q9NQU5); assay: PAK6 Kinase screen; settings: Compound concentration 1.0 uM
Serine/threonine-protein kinase PAK 6 (Homo sapiens), sequence (Q9NQU5 whole entry, looked up): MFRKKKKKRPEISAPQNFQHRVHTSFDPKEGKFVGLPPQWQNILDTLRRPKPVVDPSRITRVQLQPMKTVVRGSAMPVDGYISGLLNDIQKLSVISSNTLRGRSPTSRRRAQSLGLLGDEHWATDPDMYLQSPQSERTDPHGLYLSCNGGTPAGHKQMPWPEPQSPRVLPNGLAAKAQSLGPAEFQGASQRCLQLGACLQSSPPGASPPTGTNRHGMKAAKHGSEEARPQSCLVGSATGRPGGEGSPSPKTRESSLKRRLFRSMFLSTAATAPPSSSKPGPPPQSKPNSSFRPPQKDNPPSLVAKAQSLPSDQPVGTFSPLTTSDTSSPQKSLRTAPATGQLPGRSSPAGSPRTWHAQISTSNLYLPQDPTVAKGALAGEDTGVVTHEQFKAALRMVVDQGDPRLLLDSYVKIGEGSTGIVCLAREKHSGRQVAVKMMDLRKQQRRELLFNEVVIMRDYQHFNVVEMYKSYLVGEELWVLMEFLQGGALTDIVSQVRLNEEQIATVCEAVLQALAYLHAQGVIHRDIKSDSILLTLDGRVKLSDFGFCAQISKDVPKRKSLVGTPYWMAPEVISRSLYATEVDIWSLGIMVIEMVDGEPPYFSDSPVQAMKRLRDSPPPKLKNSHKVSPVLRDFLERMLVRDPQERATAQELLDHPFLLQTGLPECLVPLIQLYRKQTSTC

[6] = biological target: Serine/threonine-protein kinase pim-2 (Homo sapiens) (UniProt Q9P1W9); assay: PIM2 Kinase screen; settings: Compound concentration 1.0 uM
Serine/threonine-protein kinase pim-2 (Homo sapiens), sequence (Q9P1W9 whole entry, looked up): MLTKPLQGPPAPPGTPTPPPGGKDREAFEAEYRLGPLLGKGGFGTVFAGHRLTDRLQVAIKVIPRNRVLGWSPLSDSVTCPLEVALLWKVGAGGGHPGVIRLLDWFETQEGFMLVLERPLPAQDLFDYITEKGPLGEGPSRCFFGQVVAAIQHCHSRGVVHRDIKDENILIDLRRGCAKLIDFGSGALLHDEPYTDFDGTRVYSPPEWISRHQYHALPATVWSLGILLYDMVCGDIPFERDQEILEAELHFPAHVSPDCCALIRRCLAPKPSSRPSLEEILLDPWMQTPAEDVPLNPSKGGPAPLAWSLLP

[7] = biological target: T4, Serine/threonine-protein kinase TBK1 (Homo sapiens) (UniProt Q9UHD2); assay: TBK1 Kinase screen; settings: Compound concentration 1.0 uM
T4 sequence (whole entry): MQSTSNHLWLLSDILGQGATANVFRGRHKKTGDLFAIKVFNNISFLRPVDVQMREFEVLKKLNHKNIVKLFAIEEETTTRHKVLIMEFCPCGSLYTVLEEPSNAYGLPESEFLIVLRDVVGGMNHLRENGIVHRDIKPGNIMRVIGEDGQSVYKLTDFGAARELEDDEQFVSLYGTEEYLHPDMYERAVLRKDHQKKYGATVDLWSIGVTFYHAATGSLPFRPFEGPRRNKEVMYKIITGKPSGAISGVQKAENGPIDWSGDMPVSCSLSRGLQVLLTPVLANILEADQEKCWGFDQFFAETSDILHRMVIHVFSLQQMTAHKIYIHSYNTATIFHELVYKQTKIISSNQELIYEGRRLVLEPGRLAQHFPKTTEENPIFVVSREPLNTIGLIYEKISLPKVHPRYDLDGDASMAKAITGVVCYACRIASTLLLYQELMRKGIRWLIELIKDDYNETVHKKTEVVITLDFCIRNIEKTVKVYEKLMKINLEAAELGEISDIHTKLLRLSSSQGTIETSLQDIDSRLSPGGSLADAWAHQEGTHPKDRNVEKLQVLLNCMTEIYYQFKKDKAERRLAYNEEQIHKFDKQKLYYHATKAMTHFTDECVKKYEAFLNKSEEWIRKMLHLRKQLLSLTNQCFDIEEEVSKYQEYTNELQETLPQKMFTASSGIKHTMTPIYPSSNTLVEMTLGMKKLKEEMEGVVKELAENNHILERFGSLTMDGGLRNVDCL

[8] = biological target: cAMP-dependent protein kinase catalytic subunit alpha (Homo sapiens) (UniProt P17612); assay: PRKACA (PKA) Kinase screen; settings: Compound concentration 1.0 uM
[9] = test system: Tyrosine-protein kinase ABL1 (Homo sapiens), P00519 [T315I]; assay: ABL1 T315I Kinase screen; settings: Compound concentration 1.0 uM
[10] = biological target: LIM domain kinase 2 (Homo sapiens) (UniProt P53671); assay: LIMK2 Kinase screen; settings: Compound concentration 1.0 uM
LIM domain kinase 2 (Homo sapiens), sequence (P53671 whole entry, looked up, the tested form may be a part): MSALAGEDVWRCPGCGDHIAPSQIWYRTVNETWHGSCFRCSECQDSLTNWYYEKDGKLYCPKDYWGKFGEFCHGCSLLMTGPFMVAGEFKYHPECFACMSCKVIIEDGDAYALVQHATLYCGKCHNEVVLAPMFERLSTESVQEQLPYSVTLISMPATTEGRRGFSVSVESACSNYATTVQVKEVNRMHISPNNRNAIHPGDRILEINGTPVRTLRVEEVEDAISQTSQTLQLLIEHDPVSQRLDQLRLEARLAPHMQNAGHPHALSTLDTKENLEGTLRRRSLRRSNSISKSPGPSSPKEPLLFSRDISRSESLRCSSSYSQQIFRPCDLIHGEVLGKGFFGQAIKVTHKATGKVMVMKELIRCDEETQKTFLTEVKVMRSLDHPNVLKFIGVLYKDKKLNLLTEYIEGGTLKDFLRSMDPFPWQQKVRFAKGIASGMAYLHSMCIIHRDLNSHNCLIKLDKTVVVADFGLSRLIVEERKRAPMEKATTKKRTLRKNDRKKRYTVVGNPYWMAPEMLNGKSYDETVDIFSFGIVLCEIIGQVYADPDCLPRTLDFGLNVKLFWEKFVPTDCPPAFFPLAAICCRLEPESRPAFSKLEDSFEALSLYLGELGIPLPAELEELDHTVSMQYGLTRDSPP

[11] = biological target: Serine/threonine-protein kinase PLK1 (Homo sapiens) (UniProt P53350); assay: PLK1 Kinase screen; settings: Compound concentration 1.0 uM
Serine/threonine-protein kinase PLK1 (Homo sapiens), sequence (P53350 whole entry): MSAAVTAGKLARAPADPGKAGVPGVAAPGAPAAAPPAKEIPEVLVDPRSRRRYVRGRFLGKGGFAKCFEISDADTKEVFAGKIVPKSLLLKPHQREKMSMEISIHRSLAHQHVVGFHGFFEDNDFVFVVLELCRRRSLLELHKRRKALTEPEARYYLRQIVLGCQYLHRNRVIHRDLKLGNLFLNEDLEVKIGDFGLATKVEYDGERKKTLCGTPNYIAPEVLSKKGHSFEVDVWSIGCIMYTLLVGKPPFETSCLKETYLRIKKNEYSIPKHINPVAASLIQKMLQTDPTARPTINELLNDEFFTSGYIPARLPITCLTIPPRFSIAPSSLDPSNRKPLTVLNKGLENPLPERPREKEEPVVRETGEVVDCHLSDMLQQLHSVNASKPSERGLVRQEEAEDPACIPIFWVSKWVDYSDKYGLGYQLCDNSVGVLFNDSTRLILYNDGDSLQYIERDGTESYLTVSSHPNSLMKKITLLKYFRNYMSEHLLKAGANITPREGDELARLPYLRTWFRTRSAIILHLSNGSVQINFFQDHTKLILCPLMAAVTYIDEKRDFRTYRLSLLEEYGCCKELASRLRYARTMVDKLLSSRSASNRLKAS

[12] = biological target: Phosphatidylinositol 3-kinase catalytic subunit type 3 (Homo sapiens) (UniProt Q8NEB9); assay: PIK3C3 (hVPS34) Kinase screen; settings: Compound concentration 1.0 uM
[13] = biological target: Vasopressin V1a receptor (Homo sapiens) (UniProt P37288); settings: Compound concentration 10.0 uM
Vasopressin V1a receptor (Homo sapiens), sequence (P37288 whole entry, looked up): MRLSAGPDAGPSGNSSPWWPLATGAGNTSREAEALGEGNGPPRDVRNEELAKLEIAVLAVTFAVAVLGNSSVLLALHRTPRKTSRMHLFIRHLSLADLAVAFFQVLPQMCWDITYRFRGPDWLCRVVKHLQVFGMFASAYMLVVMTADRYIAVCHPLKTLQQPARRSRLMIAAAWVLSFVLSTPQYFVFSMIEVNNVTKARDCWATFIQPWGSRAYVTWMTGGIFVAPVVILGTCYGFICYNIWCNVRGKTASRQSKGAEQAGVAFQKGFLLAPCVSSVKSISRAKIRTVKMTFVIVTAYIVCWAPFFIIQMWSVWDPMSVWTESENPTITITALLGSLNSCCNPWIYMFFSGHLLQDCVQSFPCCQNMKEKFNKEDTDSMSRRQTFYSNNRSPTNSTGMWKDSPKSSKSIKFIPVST

[14] = biological target: C-X-C chemokine receptor type 2 (Homo sapiens) (UniProt P25025); assay: Inhibition of Chemokine CXCR2 (IL-8RB) at 10 µM in the Eurofins-Panlabs radioligand binding assay (Eurofins_assay_244500); settings: Compound concentration 10.0 uM
C-X-C chemokine receptor type 2 (Homo sapiens), sequence (P25025 whole entry): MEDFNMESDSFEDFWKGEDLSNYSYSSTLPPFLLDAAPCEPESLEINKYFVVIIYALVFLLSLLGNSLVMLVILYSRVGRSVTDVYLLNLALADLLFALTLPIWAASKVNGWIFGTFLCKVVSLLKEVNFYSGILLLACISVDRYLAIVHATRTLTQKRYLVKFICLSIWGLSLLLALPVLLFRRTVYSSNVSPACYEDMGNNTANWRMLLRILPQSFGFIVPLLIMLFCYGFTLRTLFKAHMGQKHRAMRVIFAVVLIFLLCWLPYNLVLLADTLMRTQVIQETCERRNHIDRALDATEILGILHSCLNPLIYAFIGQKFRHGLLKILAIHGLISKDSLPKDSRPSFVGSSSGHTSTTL

[15] = biological target: Adenosine receptor A1 (Homo sapiens) (UniProt P30542); settings: Compound concentration 10.0 uM
Adenosine receptor A1 (Homo sapiens), sequence (P30542 whole entry): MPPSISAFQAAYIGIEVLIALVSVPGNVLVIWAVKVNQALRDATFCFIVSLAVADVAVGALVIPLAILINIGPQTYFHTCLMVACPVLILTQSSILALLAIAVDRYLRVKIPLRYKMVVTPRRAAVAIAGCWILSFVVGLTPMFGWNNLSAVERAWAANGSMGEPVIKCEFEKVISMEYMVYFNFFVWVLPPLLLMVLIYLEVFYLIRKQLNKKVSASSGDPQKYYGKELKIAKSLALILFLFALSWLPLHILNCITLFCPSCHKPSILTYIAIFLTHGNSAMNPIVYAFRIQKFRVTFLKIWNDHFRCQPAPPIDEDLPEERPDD

[16] = biological target: Protein-tyrosine kinase 6 (Homo sapiens) (UniProt Q13882); assay: PTK6 (Brk) Kinase screen; settings: Compound concentration 1.0 uM
Protein-tyrosine kinase 6 (Homo sapiens), sequence (Q13882 whole entry, looked up): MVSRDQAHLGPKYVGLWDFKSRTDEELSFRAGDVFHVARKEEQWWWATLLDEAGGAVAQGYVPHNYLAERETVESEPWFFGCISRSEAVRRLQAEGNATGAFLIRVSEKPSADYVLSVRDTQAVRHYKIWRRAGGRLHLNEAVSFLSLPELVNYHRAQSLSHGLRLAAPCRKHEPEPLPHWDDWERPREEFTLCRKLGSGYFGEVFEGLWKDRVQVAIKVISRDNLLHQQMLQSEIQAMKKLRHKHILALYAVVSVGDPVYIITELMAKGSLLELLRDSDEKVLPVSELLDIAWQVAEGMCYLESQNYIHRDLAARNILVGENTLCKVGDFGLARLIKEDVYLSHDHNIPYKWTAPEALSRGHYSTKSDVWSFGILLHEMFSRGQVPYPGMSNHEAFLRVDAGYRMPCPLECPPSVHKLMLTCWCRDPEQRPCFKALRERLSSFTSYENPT

Measured: inhibition

C[C@@H]1CN(c2cc(-c3n[nH]c4ccc(OC5(C)CC5)cc34)ncn2)C[C@H](C)O1 [MLi-2]
inactive: [1] -2.67% | [2] -0.743% | [3] 3.5% | [4] -9% | [5] 1.67% | [6] -1.94% | [7] 7.78% | [8] -2.26% | [9] 9.34% | [10] 0.642% | [11] 7.54% | [12] 19.4% | [13] -9% | [14] 1% | [15] 29% | [16] 2.74%
